Reference: BindingDB's records for patent US9018255 (Instytut Chemii Organicznej Polskiej Akademii Nauk, 2015)
pIC50: −log10 of the molar value.

Molecular target: T1, Thioredoxin (Homo sapiens, UniProt P10599)
T1 sequence (P10599 whole entry): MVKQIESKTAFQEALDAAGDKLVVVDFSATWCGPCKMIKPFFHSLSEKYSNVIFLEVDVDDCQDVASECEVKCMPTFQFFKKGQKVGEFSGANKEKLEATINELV
Test: In vitro Assay
Conditions: pH 7.6
Experimental: The method of determining thioredoxin activity is based on the reduction of insulin by thioredoxin. Thioredoxin is reconstituted is by thioredoxin reductase, with NADPH. The resulting free thiol -SH groups react with 5,5′-dithiobis-2-nitrobenzoic acid (DTNB). The termination of the reaction results in the formation of a […]. […] The reaction was performed at 37° C. over 30 min. in a buffer containing 50 mM Tris-HCl and 20 mM EDTA at a pH of 7.6.

Q: With `C=C(COC(=O)c1c(C(F)(F)F)cccc1C(F)(F)F)C(=O)NCc1ccccc1` [US9018255, 8a] as the molecule, how does the pIC50 read?
A: 5.07
